The values below are quoted from earlier work in patent US20230219928A1, “PREPARATION METHOD FOR AROMATIC ETHER COMPOUND” (Jiangsu Yahong Meditech Co., Ltd., priority 2020, published 2023).

For data set [1] the following is noted: human, phase II clinical trial conducted by Jiangsu Yahong Meditech in China.
The conditions of data set [2]: background statement.

For `O=[N+]([O-])c1ccc(O)c2ncccc12` [nitroxoline], the biological half-life in data set [1] is reported as 1.22-1.44 hours. In data set [2], the water solubility result is given as “very low”.
